Assay results as given in PubChem BioAssay AID1963862 (Molecular Pharmacology Branch, DTP, NCI, 2024).

System: KRAS patient-derived spheroids with HUVEC/MSC, viability
Assay: Anticancer human tumor 941728-121-R-J1-PDC patient-derived lung adenocarcinoma cell line growth inhibition [KRAS2]
Conditions: for IC50: curve of first compound; for viability, T/C: stronger effect = lower value
In short: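 KRAS-mutant tumor cells were grown as spheroids with HUVEC endothelial cells and human MSCs as stroma. Targeted agents were tested alone and with KRAS pathway inhibitors. Doses started at or near clinical Cmax, or 10 microM, descending half-log.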

[1] = second compound 0.1 µM, first compound 0.0316 µM
[2] = second compound 0.1 µM, first compound 0.1 µM
[3] = second compound 0.1 µM, first compound 0.316 µM
[4] = second compound 0.1 µM, first compound 1 µM
[5] = second compound 0.1 µM, first compound 3.16 µM
[6] = second compound 0.1 µM, first compound 10 µM
[7] = second compound 0.316 µM, first compound 0.0316 µM
[8] = second compound 0.316 µM, first compound 0.1 µM
[9] = second compound 0.316 µM, first compound 0.316 µM
[10] = second compound 0.316 µM, first compound 1 µM
[11] = second compound 0.316 µM, first compound 3.16 µM
[12] = second compound 0.316 µM, first compound 10 µM
[13] = second compound 1 µM, first compound 0.0316 µM
[14] = second compound 1 µM, first compound 0.1 µM
[15] = second compound 1 µM, first compound 0.316 µM
[16] = second compound 1 µM, first compound 1 µM
[17] = second compound 1 µM, first compound 3.16 µM
[18] = second compound 1 µM, first compound 10 µM
[19] = second compound 3.16 µM, first compound 0.0316 µM
[20] = second compound 3.16 µM, first compound 0.1 µM
[21] = second compound 3.16 µM, first compound 0.316 µM
[22] = second compound 3.16 µM, first compound 1 µM
[23] = second compound 3.16 µM, first compound 3.16 µM
[24] = second compound 3.16 µM, first compound 10 µM
[25] = second compound 10 µM, first compound 0.0316 µM
[26] = second compound 10 µM, first compound 0.1 µM
[27] = second compound 10 µM, first compound 0.316 µM
[28] = second compound 10 µM, first compound 1 µM
[29] = second compound 10 µM, first compound 3.16 µM
[30] = second compound 10 µM, first compound 10 µM
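Further: spheroids exposed to agents for seven days before readout.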

Compound | IC50 (second compound 0.1 µM) [nM] | IC50 (second compound 0.316 µM) [nM] | IC50 (second compound 1 µM) [nM] | IC50 (second compound 3.16 µM) [nM] | viability, T/C [1] [%] | viability, T/C [2] [%] | viability, T/C [3] [%] | viability, T/C [4] [%] | viability, T/C [5] [%] | viability, T/C [6] [%] | viability, T/C [7] [%] | viability, T/C [8] [%] | viability, T/C [9] [%] | viability, T/C [10] [%] | viability, T/C [11] [%] | viability, T/C [12] [%] | viability, T/C [13] [%] | viability, T/C [14] [%] | viability, T/C [15] [%] | viability, T/C [16] [%] | further results
COc1cc(Nc2ncc3c(n2)-c2ccc(Cl)cc2C(c2c(F)cccc2OC)=NC3)ccc1C(=O)O + COc1cc2nc(C)nc(NC(C)c3cc(N)cc(C(F)(F)F)c3)c2cc1OC1CCOC1 | < 31.6 | < 31.6 | < 31.6 | < 31.6 | 52.4 | 44.5 | 44.1 | 47.7 | 42.1 | 42.1 | 41 | 42.3 | 44.1 | 40.2 | 40.7 | 37.3 | 34.7 | 38 | 36.5 | 38.2 | IC50 (second compound 10 µM): < 31.6 nM; viability, T/C [17]: 33.9%; viability, T/C [18]: 31.4%; viability, T/C [19]: 34.2%; viability, T/C [20]: 32.6%; viability, T/C [21]: 36.6%; viability, T/C [22]: 30.6%; viability, T/C [23]: 23%; viability, T/C [24]: 19.7%; viability, T/C [25]: 12.4%; viability, T/C [26]: 14.3%; viability, T/C [27]: 7.81%; viability, T/C [28]: 4.39%; viability, T/C [29]: 6.63%; viability, T/C [30]: 3.43%
COC(=O)c1ccc2c(C(=Nc3ccc(N(C)C(=O)CN4CCN(C)CC4)cc3)c3ccccc3)c(O)[nH]c2c1 + C=CC(=O)N1CCN(c2nc(OCC3CCCN3C)nc3c2CCN(c2cccc4cccc(C)c24)C3)CC1CC#N | < 31.6 | < 31.6 | < 31.6 | < 31.6 | 31.4 | 27 | 23.2 | 18.1 | 4.92 | 5.67 | 29.8 | 26.9 | 23.7 | 18.1 | 4.34 | 3.09 | 24.2 | 23.9 | 23.4 | 13 | IC50 (second compound 0.0316 µM): < 31.6 nM; viability, T/C (second compound 0.0316 µM, first compound 0.0316 µM): 30.6%; viability, T/C (second compound 0.0316 µM, first compound 0.1 µM): 26.9%; viability, T/C (second compound 0.0316 µM, first compound 0.316 µM): 23.9%; viability, T/C (second compound 0.0316 µM, first compound 1 µM): 22.5%; viability, T/C (second compound 0.0316 µM, first compound 3.16 µM): 8.16%; viability, T/C (second compound 0.0316 µM, first compound 10 µM): 6.26%; viability, T/C [17]: 0.56%; viability, T/C [18]: 0.29%; viability, T/C [19]: 0.27%; viability, T/C [20]: 0.31%; viability, T/C [21]: 0.12%; viability, T/C [22]: 0.11%; viability, T/C [23]: 0.07%; viability, T/C [24]: 0.11%
CC1(C)CCC(CN2CCN(c3ccc(C(=O)NS(=O)(=O)c4ccc(NCC5CCOCC5)c([N+](=O)[O-])c4)c(Oc4cnc5[nH]ccc5c4)c3)CC2)=C(c2ccc(Cl)cc2)C1 + CC1OCC2(CCN(c3cnc(Sc4ccnc(N)c4Cl)c(N)n3)CC2)C1N | < 31.6 | < 31.6 | < 31.6 | < 31.6 | 38.4 | 30.5 | 32.1 | 31.2 | 6.63 | 2.32 | 32.1 | 24.3 | 29 | 34.3 | 5.9 | 1.62 | 29 | 26.9 | 26.1 | 27.3 | IC50 (second compound 10 µM): < 31.6 nM; viability, T/C [17]: 5.85%; viability, T/C [18]: 2.94%; viability, T/C [19]: 28.4%; viability, T/C [20]: 24.7%; viability, T/C [21]: 23.7%; viability, T/C [22]: 20.8%; viability, T/C [23]: 5.87%; viability, T/C [24]: 1.91%; viability, T/C [25]: 20.1%; viability, T/C [26]: 23.8%; viability, T/C [27]: 23.2%; viability, T/C [28]: 19.2%; viability, T/C [29]: 3.98%; viability, T/C [30]: 0.4%
CC1OCC2(CCN(c3cnc(Sc4ccnc(N)c4Cl)c(N)n3)CC2)C1N (stereo not given) + C=CC(=O)N1CCN(c2nc(=O)n(-c3c(C)ccnc3C(C)C)c3nc(-c4c(O)cccc4F)c(F)cc23)C(C)C1 | < 31.6 | < 31.6 | < 31.6 | < 31.6 | 21.9 | 20.6 | 17.3 | 16.8 | 16.6 | 12.9 | 26.5 | 23 | 20.1 | 17.1 | 15.1 | 12.4 | 31.1 | 24.7 | 20.4 | 18.9 | IC50 (second compound 10 µM): < 31.6 nM; viability, T/C [17]: 19.6%; viability, T/C [18]: 17.8%; viability, T/C [19]: 29%; viability, T/C [20]: 25.4%; viability, T/C [21]: 25.6%; viability, T/C [22]: 21.5%; viability, T/C [23]: 22.1%; viability, T/C [24]: 18.5%; viability, T/C [25]: 34.1%; viability, T/C [26]: 35%; viability, T/C [27]: 31%; viability, T/C [28]: 26.8%; viability, T/C [29]: 26.7%; viability, T/C [30]: 28.5%
